The target in this assay is T1, D(4) dopamine receptor (Homo sapiens, UniProt P21917).
T1 sequence (P21917 whole entry): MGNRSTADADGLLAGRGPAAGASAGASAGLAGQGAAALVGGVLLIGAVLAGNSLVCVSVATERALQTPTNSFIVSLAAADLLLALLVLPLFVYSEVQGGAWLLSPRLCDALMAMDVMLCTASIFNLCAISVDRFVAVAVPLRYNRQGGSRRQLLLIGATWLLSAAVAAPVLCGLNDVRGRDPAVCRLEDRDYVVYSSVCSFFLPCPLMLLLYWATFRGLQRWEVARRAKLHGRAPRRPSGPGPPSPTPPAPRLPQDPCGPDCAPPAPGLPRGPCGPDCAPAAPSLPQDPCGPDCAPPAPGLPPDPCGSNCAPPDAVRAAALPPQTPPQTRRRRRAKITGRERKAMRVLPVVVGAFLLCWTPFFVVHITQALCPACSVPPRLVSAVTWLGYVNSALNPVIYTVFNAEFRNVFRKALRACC
Description: Agonist activity at human D4.4 receptor in HEK293 cells coexpressing G-alpha-qo5 by FLIPR.

Molecules are shown by their SMILES.

One may read the EC50 as the concentration at which the effect is half-maximal. `c1ccc(N2CCN(Cc3nc4ccccc4[nH]3)CC2)nc1` [2-((4-(pyridin-2-yl)piperazin-1-yl)methyl)-1H-benzo[d]imidazole] displayed an EC50 of 12 nM.

The values above are taken from BindingDB's records for doi:10.1021/jm060662k (Abbott Laboratories, 2006).
